Data: US9526785B2, “Pharmaceuticals for oral delivery” (Enteris BioPharma, Inc., priority 2013, dated 2016)
Where two headings read alike, the source gives them in different places.

Experiment: Tigecycline plasma PK and % F after PO enteric-coated capsule in dogs
Type: in vivo, Beagle dogs
Details: female, beagle, dog, plasma, po; for concentration at 2 hr / concentration at 3 hr / concentration at 4 hr / concentration at 5 hr / concentration at 6 hr / concentration at 8 hr / concentration at 10 hr / concentration at 24 hr: PO 30 mg unformulated enteric-coated capsule; for concentration at 0 min: Time (min) 0.0; for concentration at 0.3 min: Time (min) 0.3; for concentration at 24 min: Time (min) 24.0; for bioavailability: read-out: % F
Protocol: Adult beagle dogs weighing approximately 9 to 15 kg were used in the study. […] Room temperature was set to be maintained between approximately 20±5° C. Relative humidity was monitored but not controlled.
TEKLAD™ Certified Canine Diet was provided once daily in amounts (˜400 grams) appropriate for the size and age of the animals. Tap water was available ad libitum via automatic watering device or water bowls.
Oral dosing of enteric-coated capsules was accomplished by administering them to the back of the dog's mouth, followed by a chase of 5 mL water to ensure swallowing.
Water was provided ad libitum. […] Subsequently, each group of animals was dosed based on the protocol, i.e. either IV, or PO by capsule.
Minocycline (VWR international) was used as an internal standard. Sample processing/clean-up of plasma samples was carried out offline by protein precipitation with acidified acetonitrile using 0.5% trifluoroacetic acid (TFA).
The HPLC system consisted of Shimadzu SIL-HTc HPLC system equipped with dual Shimadzu LC-10ADvp isopumps, a Shimadzu CTO-10ASvp column temperature controller and a Shimadzu SPD-10Avp variable wavelength detector. […] Mobile phase A consisted of 23 mM phosphate buffer pH 2.5 with 4 mM 1-octanesulfonic acid, while mobile phase B consisting of 90% acetonitrile, 10% water, with 2 mM 1-octanesulfonic acid. […] The total runtime was 18 minutes per sample. The mobile phase flow rate was 1.2 mL/min. Detection was performed using the SPD-10Avp variable wavelength detector set at 350 nm, with a sensitivity of 0.001 aufs.
The samples were then centrifuged under refrigeration at 13 k rpm for 5 minutes. The supernatant was taken and the liquid removed to dryness under nitrogen in a turbovap. The dried extract was reconstituted in 60 μL of mobile phase A and the suspension was further centrifuged at 5 k rpm for 5 minutes to pellet any insoluble matter. The resulting supernatant was then injected onto the LC.
The unknown concentration in dog plasma samples was determined by interpolation of the peak area ratios of analyte:internal standard versus the ratio of their nominal concentrations into the regression line obtained from calibration standards spiked in pooled dog plasma. No regression weighting was used for the calculations. […] The calibration curve covered the range of 0.05 μg/mL to 5 μg/mL. […]
The capsules were enterically coated using a standard preclinical protocol to 10% weight gain. Two studies were conducted.

[1] = 30 mg, Tigecycline Plasma Concentration, SC430, individual dogs
[2] = 30 mg, Tigecycline Plasma Concentration, SC430, mean
[3] = 30 mg, Tigecycline Plasma Concentration, PO 30 mg enteric-coated capsule with 500 mg CA and 100 mg LLC, SC430, individual dogs
[4] = 30 mg, Tigecycline Plasma Concentration, PO 30 mg enteric-coated capsule with 500 mg CA and 100 mg LLC, SC430, mean

CN(C)c1cc(NC(=O)CNC(C)(C)C)c(O)c2c1C[C@H]1C[C@H]3[C@H](N(C)C)C(O)=C(C(N)=O)C(=O)[C@@]3(O)C(O)=C1C2=O [Tigecycline] showed a concentration at 2 hr [1] of 0 ng/mL, a concentration at 2 hr [2] of 0 ng/mL and a concentration at 3 hr [1] of 0 ng/mL. The concentration at 3 hr [2] was 0 ng/mL, the concentration at 4 hr [1] was 0 ng/mL and the concentration at 4 hr [2] was 0 ng/mL. It also gave a concentration at 5 hr [1] of 0 ng/mL, a concentration at 5 hr [2] of 0 ng/mL and a concentration at 6 hr [1] of 0 ng/mL. The concentration at 6 hr [2] was 0 ng/mL, the concentration at 8 hr [1] was 0 ng/mL and the concentration at 8 hr [2] was 0 ng/mL. For the same compound, the concentration at 10 hr [1] was 0 ng/mL, the concentration at 10 hr [2] was 0 ng/mL and the concentration at 0 min [3] was 0 ng/mL. The concentration at 0 min [4] was 0 ng/mL, the concentration at 0.3 min [3] was 0 ng/mL and the concentration at 0.3 min [4] was 0 ng/mL. The concentration at 0.7 min (30 mg, Tigecycline Plasma Concentration, Time (min) 0.7, PO 30 mg enteric-coated capsule with 500 mg CA and 100 mg LLC, SC430, mean) was 26.4 ng/mL, the concentration at 1 min (30 mg, Tigecycline Plasma Concentration, Time (min) 1.0, PO 30 mg enteric-coated capsule with 500 mg CA and 100 mg LLC, SC430, mean) was 49 ng/mL and the concentration at […] (30 mg, Tigecycline Plasma Concentration, Time (min) 1.3, PO 30 mg enteric-coated capsule with 500 mg CA and 100 mg LLC, SC430, mean) was 51.2 ng/mL. The concentration at […] (30 mg, Tigecycline Plasma Concentration, Time (min) 1.7, PO 30 mg enteric-coated capsule with 500 mg CA and 100 mg LLC, SC430, mean) was 63.6 ng/mL, the concentration at 2 min (30 mg, Tigecycline Plasma Concentration, Time (min) 2.0, PO 30 mg enteric-coated capsule with 500 mg CA and 100 mg LLC, SC430, mean) was 83.5 ng/mL and the concentration at […] (30 mg, Tigecycline Plasma Concentration, Time (min) 2.3, PO 30 mg enteric-coated capsule with 500 mg CA and 100 mg LLC, SC430, mean) was 72.1 ng/mL. It also gave a concentration at […] (30 mg, Tigecycline Plasma Concentration, Time (min) 2.7, PO 30 mg enteric-coated capsule with 500 mg CA and 100 mg LLC, SC430, mean) of 59.1 ng/mL, a concentration at 3 min (30 mg, Tigecycline Plasma Concentration, Time (min) 3.0, PO 30 mg enteric-coated capsule with 500 mg CA and 100 mg LLC, SC430, mean) of 49.9 ng/mL and a concentration at […] (30 mg, Tigecycline Plasma Concentration, Time (min) 3.3, PO 30 mg enteric-coated capsule with 500 mg CA and 100 mg LLC, SC430, mean) of 42.4 ng/mL. It also gave a concentration at […] (30 mg, Tigecycline Plasma Concentration, Time (min) 3.7, PO 30 mg enteric-coated capsule with 500 mg CA and 100 mg LLC, SC430, mean) of 40.6 ng/mL, a concentration at 4 min (30 mg, Tigecycline Plasma Concentration, Time (min) 4.0, PO 30 mg enteric-coated capsule with 500 mg CA and 100 mg LLC, SC430, mean) of 36.6 ng/mL and a concentration at […] (30 mg, Tigecycline Plasma Concentration, Time (min) 4.5, PO 30 mg enteric-coated capsule with 500 mg CA and 100 mg LLC, SC430, mean) of 33.5 ng/mL. The concentration at 5 min (30 mg, Tigecycline Plasma Concentration, Time (min) 5.0, PO 30 mg enteric-coated capsule with 500 mg CA and 100 mg LLC, SC430, mean) was 31.8 ng/mL, the concentration at […] (30 mg, Tigecycline Plasma Concentration, Time (min) 5.5, PO 30 mg enteric-coated capsule with 500 mg CA and 100 mg LLC, SC430, mean) was 37.9 ng/mL and the concentration at 6 min (30 mg, Tigecycline Plasma Concentration, Time (min) 6.0, PO 30 mg enteric-coated capsule with 500 mg CA and 100 mg LLC, SC430, mean) was 21.2 ng/mL. For the same compound, the concentration at 8 min (30 mg, Tigecycline Plasma Concentration, Time (min) 8.0, PO 30 mg enteric-coated capsule with 500 mg CA and 100 mg LLC, SC430, mean) was 7.27 ng/mL, the concentration at 10 min (30 mg, Tigecycline Plasma Concentration, Time (min) 10.0, PO 30 mg enteric-coated capsule with 500 mg CA and 100 mg LLC, SC430, mean) was 2.58 ng/mL and the concentration at 24 min [3] was 0 ng/mL. It also gave a concentration at 24 min [4] of 0 ng/mL, a concentration at 24 hr [1] of 0 ng/mL and a concentration at 24 hr [2] of 0 ng/mL. It also gave a Cmax (30 mg, target dose 30 mg, enterically coated capsule, excluding animal 5256, read-out: Observed Mean Cmax) of 121 ng/mL, an AUC(0-t) (30 mg, target dose 30 mg, enterically coated capsule, time scale adjusted to 4 hours, excluding animal 5256, read-out: Observed AUC(0-t)) of 214 ng·h/mL and a bioavailability (30 mg) of 14.9%. For the same compound, the AUC(0-t) (30 mg, read-out: AUC(0-t)) was 367 ng·h/mL, the Cmax (30 mg, read-out: Cmax) was 121 ng/mL and the bioavailability (45 mg, 45 mg Formulated (500 mg CA, 100 mg LLC) enteric coated capsule, Study 2 (SC430), mean (% CV)) was 15.5%. It also gave an AUC(0-t) (45 mg, 45 mg Formulated (500 mg CA, 100 mg LLC) enteric coated capsule, Study 2 (SC430), mean (% CV), read-out: AUC(0-t)) of 574 ng·h/mL and a Cmax (45 mg, 45 mg Formulated (500 mg CA, 100 mg LLC) enteric coated capsule, Study 2 (SC430), mean (% CV), read-out: Cmax) of 177 ng/mL.
